Assay results from patent US11078170B2 (Assembly Biosciences, Inc., priority 2017, dated 2021).

Each molecule was assayed on HBV viral production from HepAD38 cells (assay: Activity of test compounds on viral production from HepAD38 cells (viral load by qPCR of HBV core sequence in supernatant)). Conditions: Hepatitis B virus, 120 h, 5 days incubation, HBV DNA in supernatant by qPCR, top concentration 10 μM, read-out: Viral Load EC50 Activity range.
Format: cell-based
Procedure, shortened: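 HepAD38 cells, 50,000/well in tetracycline-free 2% FBS medium, treated 5 days at 37° C. with compound from 10 μM top concentration. HBV DNA in supernatant quantified by TaqMan qPCR of core sequence against DNA standards, relative to DMSO wells; CellTiter-Glo viability read in parallel. EC50/CC50 from four-parameter logistic fit.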

Going from `O=C(Nc1ccc(F)c(Cl)c1)[C@@H]1C[C@H](c2nccs2)NS(=O)(=O)N1CCCO` [HBV-CSU-078-ISO-I, Cis-N-(3-Chloro-4-fluorophenyl)-2-(3-hydroxypropyl)-5-(thiazol-2-yl)-1,2,6-thiadiazinane-3-carboxamide 1,1-dioxide] to `O=C(Nc1ccc(F)c(Cl)c1)[C@H]1C[C@@H](c2nccs2)NS(=O)(=O)N1CCCO` [HBV-CSU-078-ISO-II, Cis-N-(3-Chloro-4-fluorophenyl)-2-(3-hydroxypropyl)-5-(thiazol-2-yl)-1,2,6-thiadiazinane-3-carboxamide 1,1-dioxide], the EC50 rises from less than 1 µM to greater than 5 µM.

`COC(C)(C)CCN1[C@@H](C(=O)Nc2ccc(F)c(Cl)c2)C[C@@H](c2nccs2)NS1(=O)=O` [HBV-CSU-083-ISO-I, Cis-N-(3-Chloro-4-fluorophenyl)-2-(3-methoxy-3-methylbutyl)-5-(thiazol-2-yl)-1,2,6-thiadiazinane-3-carboxamide 1,1-dioxide] and `COC(C)(C)CCN1[C@H](C(=O)Nc2ccc(F)c(Cl)c2)C[C@H](c2nccs2)NS1(=O)=O` [HBV-CSU-083-ISO-II, Cis-N-(3-Chloro-4-fluorophenyl)-2-(3-methoxy-3-methylbutyl)-5-(thiazol-2-yl)-1,2,6-thiadiazinane-3-carboxamide 1,1-dioxide] cannot be ordered by EC50: greater than 5 µM for the first, greater than 5 µM for the second.

First: C#CCN1[C@@H](C(=O)Nc2ccc(F)c(Cl)c2)C[C@@H](c2nccs2)NS1(=O)=O [HBV-CSU-089-ISO-II, Cis-N-(3-chloro-4-fluorophenyl)-2-(prop-2-yn-1-yl)-5-(thiazol-2-yl)-1,2,6-thiadiazinane-3-carboxamide 1,1-dioxide]
Second: C#CCCN1C(C(=O)Nc2ccc(F)c(Cl)c2)CC(c2nccs2)NS1(=O)=O (stereo not drawn) [HBV-CSU-090, Cis-2-(But-3-yn-1-yl)-N-(3-chloro-4-fluorophenyl)-5-(thiazol-2-yl)-1,2,6-thiadiazinane-3-carboxamide 1,1-dioxide]
The EC50 of the first is higher: greater than 5 µM for the first, less than 1 µM for the second.

Compared with `C#CCCN1[C@H](C(=O)Nc2ccc(F)c(Cl)c2)C[C@H](c2nccs2)NS1(=O)=O` [HBV-CSU-090-ISO-I, Cis-2-(But-3-yn-1-yl)-N-(3-chloro-4-fluorophenyl)-5-(thiazol-2-yl)-1,2,6-thiadiazinane-3-carboxamide 1,1-dioxide], `C#CCCN1[C@@H](C(=O)Nc2ccc(F)c(Cl)c2)C[C@@H](c2nccs2)NS1(=O)=O` [HBV-CSU-090-ISO-II, Cis-2-(But-3-yn-1-yl)-N-(3-chloro-4-fluorophenyl)-5-(thiazol-2-yl)-1,2,6-thiadiazinane-3-carboxamide 1,1-dioxide] is higher in EC50: less than 1 µM for the first, greater than 5 µM for the second. The first is the more potent here.

First: O=C(Nc1ccc(F)c(Cl)c1)[C@@H]1C[C@H](c2nccs2)NS(=O)(=O)N1CCc1c[nH]nn1 [HBV-CSU-092-ISO-I, Cis-2-(2-(1H-1,2,3-Triazol-4-yl)ethyl)-N-(3-chloro-4-fluorophenyl)-5-(thiazol-2-yl)-1,2,6-thiadiazinane-3-carboxamide 1,1-dioxide]
Second: O=C(Nc1ccc(F)c(Cl)c1)[C@H]1C[C@@H](c2nccs2)NS(=O)(=O)N1CCc1c[nH]nn1 [HBV-CSU-092-ISO-II, Cis-2-(2-(1H-1,2,3-Triazol-4-yl)ethyl)-N-(3-chloro-4-fluorophenyl)-5-(thiazol-2-yl)-1,2,6-thiadiazinane-3-carboxamide 1,1-dioxide]
The EC50 of the first is lower: less than 1 µM for the first, greater than 5 µM for the second.

First: N#CCN1[C@H](C(=O)Nc2ccc(F)c(Cl)c2)C[C@H](c2nccs2)NS1(=O)=O [HBV-CSU-093-ISO-I, Cis-N-(3-Chloro-4-fluorophenyl)-2-(cyanomethyl)-5-(thiazol-2-yl)-1,2,6-thiadiazinane-3-carboxamide 1,1-dioxide]
Second: N#CCN1[C@@H](C(=O)Nc2ccc(F)c(Cl)c2)C[C@@H](c2nccs2)NS1(=O)=O [HBV-CSU-093-ISO-II, Cis-N-(3-Chloro-4-fluorophenyl)-2-(cyanomethyl)-5-(thiazol-2-yl)-1,2,6-thiadiazinane-3-carboxamide 1,1-dioxide]
The EC50 of the first is lower: 1 to 5 µM for the first, greater than 5 µM for the second. The first is the more potent here.

Compared with `C=CCN1[C@@H](C(=O)Nc2ccc(F)c(Cl)c2)C[C@@H](c2nccs2)NS1(=O)=O` [HBV-CSU-094-ISO-I, Cis-2-Allyl-N-(3-chloro-4-fluorophenyl)-5-(thiazol-2-yl)-1,2,6-thiadiazinane-3-carboxamide 1,1-dioxide], `C=CCN1[C@H](C(=O)Nc2ccc(F)c(Cl)c2)C[C@H](c2nccs2)NS1(=O)=O` [HBV-CSU-094-ISO-II, Cis-2-Allyl-N-(3-chloro-4-fluorophenyl)-5-(thiazol-2-yl)-1,2,6-thiadiazinane-3-carboxamide 1,1-dioxide] is lower in EC50: greater than 5 µM for the first, less than 1 µM for the second.

Compared with `O=C(Nc1ccc(F)c(Cl)c1)[C@@H]1C[C@H](c2nccs2)NS(=O)(=O)N1CCOCc1ccccc1` [HBV-CSU-095-ISO-II, Cis-2-(2-(benzyloxy)ethyl)-N-(3-chloro-4-fluorophenyl)-5-(thiazol-2-yl)-1,2,6-thiadiazinane-3-carboxamide 1,1-dioxide], `O=C(Nc1ccc(F)c(Cl)c1)C1CC(c2nccs2)NS(=O)(=O)N1CCO` (stereo not drawn) [HBV-CSU-097, Cis-N-(3-Chloro-4-fluorophenyl)-2-(2-hydroxyethyl)-5-(thiazol-2-yl)-1,2,6-thiadiazinane-3-carboxamide 1,1-dioxide] is higher in EC50: 1 to 5 µM for the first, greater than 5 µM for the second. The first is the more potent here.

Compared with `O=C(Nc1ccc(F)c(Cl)c1)C1CC(c2nccs2)NS(=O)(=O)N1` (stereo not drawn) [HBV-CSU-096, Cis-N-(3-Chloro-4-fluorophenyl)-5-(thiazol-2-yl)-1,2,6-thiadiazinane-3-carboxamide 1,1-dioxide], `O=C(Nc1ccc(F)c(Cl)c1)[C@H]1C[C@@H](c2nccs2)NS(=O)(=O)N1` [HBV-CSU-096-ISO-I, Cis-N-(3-Chloro-4-fluorophenyl)-5-(thiazol-2-yl)-1,2,6-thiadiazinane-3-carboxamide 1,1-dioxide] is higher in EC50: 1 to 5 µM for the first, greater than 5 µM for the second. The first is the more potent here.

First: O=C(Nc1ccc(F)c(Cl)c1)[C@@H]1C[C@H](c2nccs2)NS(=O)(=O)N1 [HBV-CSU-096-ISO-II, Cis-N-(3-Chloro-4-fluorophenyl)-5-(thiazol-2-yl)-1,2,6-thiadiazinane-3-carboxamide 1,1-dioxide]
Second: O=C(Nc1ccc(F)c(Cl)c1)[C@H]1C[C@@H](c2nccs2)NS(=O)(=O)N1CCO [HBV-CSU-097-ISO-I, Cis-N-(3-Chloro-4-fluorophenyl)-2-(2-hydroxyethyl)-5-(thiazol-2-yl)-1,2,6-thiadiazinane-3-carboxamide 1,1-dioxide]
The EC50 of the first is lower: less than 1 µM for the first, greater than 5 µM for the second. The first is the more potent here.

`CCN(CC)CCCN1[C@@H](C(=O)Nc2ccc(F)c(Cl)c2)C[C@@H](c2nccs2)NS1(=O)=O` [HBV-CSU-101-ISO-I, Cis-N-(3-Chloro-4-fluorophenyl)-2-(3-(diethylamino)propyl)-5-(thiazol-2-yl)-1,2,6-thiadiazinane-3-carboxamide 1,1-dioxide] and `CSCCN1[C@@H](C(=O)Nc2ccc(F)c(Cl)c2)C[C@@H](c2nccs2)NS1(=O)=O` [HBV-CSU-109-ISO-I, Cis-N-(3-Chloro-4-fluorophenyl)-2-(2-(methylthio)ethyl)-5-(thiazol-2-yl)-1,2,6-thiadiazinane-3-carboxamide 1,1-dioxide] cannot be ordered by EC50: greater than 5 µM for the first, greater than 5 µM for the second.

`O=C(Nc1ccc(F)c(Cl)c1)C1CC(c2nccs2)NS(=O)(=O)N1CCCN1CCCC1` (stereo not drawn) [HBV-CSU-102, Cis-N-(3-Chloro-4-fluorophenyl)-2-(3-(pyrrolidin-1-yl)propyl)-5-(thiazol-2-yl)-1,2,6-thiadiazinane-3-carboxamide 1,1-dioxide] and `O=C(Nc1ccc(F)c(Cl)c1)[C@H]1C[C@@H](c2nccs2)NS(=O)(=O)N1CCCN1CCCC1` [HBV-CSU-102-ISO-I, Cis-N-(3-Chloro-4-fluorophenyl)-2-(3-(pyrrolidin-1-yl)propyl)-5-(thiazol-2-yl)-1,2,6-thiadiazinane-3-carboxamide 1,1-dioxide] cannot be ordered by EC50: greater than 5 µM for the first, greater than 5 µM for the second.

`O=C(Nc1ccc(F)c(Cl)c1)[C@@H]1C[C@H](c2nccs2)NS(=O)(=O)N1CCCN1CCCC1` [HBV-CSU-102-ISO-II, Cis-N-(3-Chloro-4-fluorophenyl)-2-(3-(pyrrolidin-1-yl)propyl)-5-(thiazol-2-yl)-1,2,6-thiadiazinane-3-carboxamide 1,1-dioxide] and `O=C(Nc1ccc(F)c(Cl)c1)C1CC(c2nccs2)NS(=O)(=O)N1CCCN1CCOCC1` (stereo not drawn) [HBV-CSU-103, Cis-N-(3-Chloro-4-fluorophenyl)-2-(3-morpholinopropyl)-5-(thiazol-2-yl)-1,2,6-thiadiazinane-3-carboxamide 1,1-dioxide] cannot be ordered by EC50: greater than 5 µM for the first, greater than 5 µM for the second.

First: O=C(Nc1ccc(F)c(Cl)c1)[C@@H]1C[C@H](c2nccs2)NS(=O)(=O)N1CCCN1CCOCC1 [HBV-CSU-103-ISO-II]
Second: O=C(Nc1ccc(F)c(Cl)c1)[C@H]1C[C@@H](c2nccs2)NS(=O)(=O)N1CCCN1CCOCC1 [HBV-CSU-103-ISO-I]
The EC50 of the first is lower: 1 to 5 µM for the first, greater than 5 µM for the second. The first is the more potent here.

Compared with `COc1ccc(CN2C(C(=O)Nc3ccc(F)c(Cl)c3)CC(c3nccs3)NS2(=O)=O)cc1` (stereo not drawn) [HBV-CSU-108, Cis-N-(3-chloro-4-fluorophenyl)-2-(4-methoxybenzyl)-5-(thiazol-2-yl)-1,2,6-thiadiazinane-3-carboxamide 1,1-dioxide], `CSCCN1[C@H](C(=O)Nc2ccc(F)c(Cl)c2)C[C@H](c2nccs2)NS1(=O)=O` [HBV-CSU-109-ISO-II, Cis-N-(3-Chloro-4-fluorophenyl)-2-(2-(methylthio)ethyl)-5-(thiazol-2-yl)-1,2,6-thiadiazinane-3-carboxamide 1,1-dioxide] is lower in EC50: greater than 5 µM for the first, less than 1 µM for the second. The second is the more potent here.

Going from `O=C(O)CN1C(C(=O)Nc2ccc(F)c(Cl)c2)CC(c2nccs2)NS1(=O)=O` (stereo not drawn) [HBV-CSU-110, Cis-2-(3-((3-Chloro-4-fluorophenyl)carbamoyl)-1,1-dioxido-5-(thiazol-2-yl)-1,2,6-thiadiazinan-2-yl)acetic acid] to `CN1C(C(=O)Nc2ccc(F)c(Cl)c2)CC(c2ccc(F)cc2)NS1(=O)=O` (stereo not drawn) [HBV-CSU-112 (Cis), Cis-N-(3-Chloro-4-fluorophenyl)-5-(4-fluorophenyl)-2-methyl-1,2,6-thiadiazinane-3-carboxamide 1,1-dioxide], the EC50 falls from greater than 5 µM to less than 1 µM. The second is the more potent here.
